Assay results as given in US7838676B2, “Beta-secretase modulators and methods of use” (Amgen Inc., priority 2005, dated 2010).

Test system: Aβ40 in conditioned medium of APP containing cells
Assay: BACE Cell-Based Assay (Aβ40 sandwich ELISA, HEK-293 cells stably expressing APP)
Settings: Homo sapiens, HEK293, inhibition of Aβ 40 in conditioned media after 24 h
Method: The cell-based assay measures inhibition or reduction of Aβ40 in conditioned medium of test compound treated APP containing cells.
Cells stably expressing Amyloid Precursor Protein (APP) were plated at a density of 40K cells/well in 96 well plates (Costar). The cells were cultivated for 24 h at 37° C. and 5% CO2 in DMEM supplemented with 10% FBS. The test compounds were then added to cells in 10-point dose response concentrations with the starting concentration being either 100 μM or 10 μM. The compounds were diluted from stock solutions in DMSO and the final DMSO concentration of the test compounds on cells was 0.1%. After 24 h of incubation with the test compounds the supernatant conditioned media was collected and the Aβ 40 levels were determined using a sandwich ELISA. The IC50 of the compound was calculated from the percent of control or percent inhibition of Aβ 40 as a function of the concentration of the test compound.
The sandwich ELISA to detect Aβ 40 was performed in 96 well microtiter plates, which were pre-treated with goat anti-rabbit IgG (Pierce). The capture and detecting antibody pair that were used to detect Aβ 40 from cell supernatants were affinity purified pAb40 (Biosource) and biotinylated 6E10 (Signet Labs Inc.), respectively. The optimal concentration for the pAb40 antibody was 3 μg/ml in Superblock/TBS (Pierce) that was supplemented with 0.05% Tween 20 (Sigma). Optimal concentration for the detection antibody 6E10-biotinylated was 0.5 μg/ml in Superblock/TBS (Pierce) that had been supplemented with 2% normal goat serum and 2% normal mouse serum.
Cellular supernatants were incubated with the capture antibody for 3 h at 4° C., followed by 3 wash steps in TBS-tween (0.05%). The detecting antibody incubation was for 2 h at 4° C., again followed by the wash steps as described previously. The final readout of the ELISA is Time-Resolved Fluorescence (counts per minute) using Delfia reagents Streptavidin-Europium and Enhancement solutions (Perkin Elmer) and the Victor 2 multilabel counter (Perkin Elmer).

SMILES | IC50 [µM]
Cc1cnc2c(c1)[C@@H](NC[C@@H](O)[C@H](Cc1cc(F)cc(F)c1)NC(=O)c1ccc(N3CCCC3=O)c(F)c1)CC1(CCC1)C2 [Example 146, N-((1S,2R)-1-((3,5-difluorophenyl)methyl)-2-hydroxy-3-(((5′S)-3′-methyl-5′,8′-dihydro-6′H-spiro[cyclobutane-1,7′-quinolin]-5′-yl)amino)propyl)-3-fluoro-4-(2-oxo-1-pyrrolidinyl)benzamide] | ≤ 5
O=C(N[C@@H](Cc1ccccc1)[C@H](O)CN[C@H]1CC2(CCC2)Oc2ccc(Br)cc21)c1ccno1 [Example 162, N-((1S,2R)-3-(((4S)-6-bromo-3,4-dihydrospiro[chromene-2,1′-cyclobutan]-4-yl)amino)-2-hydroxy-1-(phenylmethyl)propyl)-5-isoxazolecarboxamide] | ≤ 5
CCc1ccc2c(c1)[C@@H](NC[C@@H](O)[C@H](Cc1ccccc1)NC(=O)c1ccnc(N3CCCCC3)c1)CC1(CCCC1)O2 [Example 167, N-((2S,3R)-4-((S)-6-ethyl-2,2-spirocyclopentylchroman-4-ylamino)-3-hydroxy-1-phenylbutan-2-yl)-2-(piperidin-1-yl)isonicotinamide] | ≤ 5
CCc1ccc2c(c1)[C@@H](NC[C@@H](O)[C@H](Cc1ccccc1)NC(=O)c1ccnc(N3CCOCC3)c1)CC1(CCCC1)O2 [Example 169, N-((2S,3R)-4-((S)-6-ethyl-2,2-spirocyclopentylchroman-4-ylamino)-3-hydroxy-1-phenylbutan-2-yl)-2-morpholinoisonicotinamide] | ≤ 5

Other lines, results leading:

IC50 [µM] | SMILES
≤ 5 | CCc1ccc2c(c1)[C@@H](NC[C@@H](O)[C@H](Cc1ccccc1)NC(=O)c1cncnc1)CC1(CCC1)O2 [Example 19, N-((2S,3R)-4-((S)-6-ethyl-2,2-spirocyclobutylchroman-4-ylamino)-3-hydroxy-1-phenylbutan-2-yl)pyrimidine-5-carboxamide]
≤ 5 | CCc1ccc2c(c1)[C@@H](NC[C@@H](O)[C@H](Cc1ccccc1)NC(=O)c1cc(N3CCCC3=O)ccc1OC)CC1(CCCC1)O2 [Example 30, N-((2S,3R)-4-((S)-6-ethyl-2,2-spirocyclopentylchroman-4-ylamino)-3-hydroxy-1-phenylbutan-2-yl)-2-methoxy-5-(2-oxopyrrolidin-1-yl)benzamide]
≤ 5 | CCc1ccc2c(c1)[C@@H](NC[C@@H](O)[C@H](Cc1ccccc1)NC(=O)c1cccc(-c3ccccn3)c1)CC1(CCCC1)O2 [Example 106]
